Calls of active or inactive are those of the source.
Key:
[1] = target: T1, Beta-adrenergic receptor kinase 1 (Homo sapiens, UniProt P25098)
T1 sequence (P25098 whole entry): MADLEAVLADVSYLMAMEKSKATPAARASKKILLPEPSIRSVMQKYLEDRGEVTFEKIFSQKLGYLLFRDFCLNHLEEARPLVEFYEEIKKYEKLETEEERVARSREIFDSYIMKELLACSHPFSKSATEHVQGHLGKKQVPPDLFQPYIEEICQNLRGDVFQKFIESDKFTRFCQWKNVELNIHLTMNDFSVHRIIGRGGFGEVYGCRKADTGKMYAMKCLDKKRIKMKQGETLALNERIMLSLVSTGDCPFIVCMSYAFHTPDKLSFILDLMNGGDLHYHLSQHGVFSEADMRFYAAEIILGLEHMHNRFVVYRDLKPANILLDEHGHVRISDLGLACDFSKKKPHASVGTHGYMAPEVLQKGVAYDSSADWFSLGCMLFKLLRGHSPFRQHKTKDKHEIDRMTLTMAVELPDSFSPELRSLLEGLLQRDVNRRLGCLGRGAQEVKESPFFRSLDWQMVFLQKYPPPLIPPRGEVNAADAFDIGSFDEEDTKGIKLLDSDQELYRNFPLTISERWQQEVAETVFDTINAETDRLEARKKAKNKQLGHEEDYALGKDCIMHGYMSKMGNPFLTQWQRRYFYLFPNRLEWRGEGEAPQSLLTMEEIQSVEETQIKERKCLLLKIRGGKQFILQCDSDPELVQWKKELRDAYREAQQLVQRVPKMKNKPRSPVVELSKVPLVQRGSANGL

[2] = target: T2, Phosphorylase b kinase gamma catalytic chain, liver/testis isoform (Homo sapiens, UniProt P15735)
T2 sequence (P15735 whole entry): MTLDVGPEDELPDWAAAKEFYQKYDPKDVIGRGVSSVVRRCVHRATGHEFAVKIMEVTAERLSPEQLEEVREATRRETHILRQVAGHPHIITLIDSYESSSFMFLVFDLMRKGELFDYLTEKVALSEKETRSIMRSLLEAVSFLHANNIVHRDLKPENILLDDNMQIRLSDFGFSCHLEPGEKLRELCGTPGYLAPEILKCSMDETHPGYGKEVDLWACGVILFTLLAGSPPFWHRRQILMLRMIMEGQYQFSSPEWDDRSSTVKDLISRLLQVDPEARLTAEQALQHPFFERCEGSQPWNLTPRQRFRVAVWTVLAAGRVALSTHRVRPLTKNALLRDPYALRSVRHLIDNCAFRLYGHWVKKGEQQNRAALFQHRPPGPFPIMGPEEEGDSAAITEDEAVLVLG

[3] = target: T3, Very long-chain specific acyl-CoA dehydrogenase, mitochondrial (Homo sapiens, UniProt P49748)
T3 sequence (P49748 whole entry): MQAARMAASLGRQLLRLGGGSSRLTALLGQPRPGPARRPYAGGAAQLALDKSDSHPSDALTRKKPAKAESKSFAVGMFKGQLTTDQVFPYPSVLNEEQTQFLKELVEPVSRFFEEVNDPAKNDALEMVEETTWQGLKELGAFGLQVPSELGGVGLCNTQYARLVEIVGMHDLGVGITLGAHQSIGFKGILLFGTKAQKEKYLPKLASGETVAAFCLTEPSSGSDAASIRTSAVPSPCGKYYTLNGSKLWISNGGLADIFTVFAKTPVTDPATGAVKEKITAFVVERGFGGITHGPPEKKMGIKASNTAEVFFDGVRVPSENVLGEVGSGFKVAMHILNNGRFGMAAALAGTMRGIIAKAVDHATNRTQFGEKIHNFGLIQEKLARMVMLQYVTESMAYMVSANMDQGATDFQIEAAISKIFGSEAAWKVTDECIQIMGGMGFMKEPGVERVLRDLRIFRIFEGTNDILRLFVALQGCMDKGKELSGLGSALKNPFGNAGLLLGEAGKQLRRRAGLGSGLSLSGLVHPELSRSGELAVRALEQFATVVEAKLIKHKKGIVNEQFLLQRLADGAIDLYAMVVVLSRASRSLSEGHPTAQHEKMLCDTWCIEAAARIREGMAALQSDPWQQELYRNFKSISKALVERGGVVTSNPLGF

[4] = target: T4, Mitogen-activated protein kinase kinase kinase 6 (Homo sapiens, UniProt O95382)
T4 sequence (O95382 whole entry): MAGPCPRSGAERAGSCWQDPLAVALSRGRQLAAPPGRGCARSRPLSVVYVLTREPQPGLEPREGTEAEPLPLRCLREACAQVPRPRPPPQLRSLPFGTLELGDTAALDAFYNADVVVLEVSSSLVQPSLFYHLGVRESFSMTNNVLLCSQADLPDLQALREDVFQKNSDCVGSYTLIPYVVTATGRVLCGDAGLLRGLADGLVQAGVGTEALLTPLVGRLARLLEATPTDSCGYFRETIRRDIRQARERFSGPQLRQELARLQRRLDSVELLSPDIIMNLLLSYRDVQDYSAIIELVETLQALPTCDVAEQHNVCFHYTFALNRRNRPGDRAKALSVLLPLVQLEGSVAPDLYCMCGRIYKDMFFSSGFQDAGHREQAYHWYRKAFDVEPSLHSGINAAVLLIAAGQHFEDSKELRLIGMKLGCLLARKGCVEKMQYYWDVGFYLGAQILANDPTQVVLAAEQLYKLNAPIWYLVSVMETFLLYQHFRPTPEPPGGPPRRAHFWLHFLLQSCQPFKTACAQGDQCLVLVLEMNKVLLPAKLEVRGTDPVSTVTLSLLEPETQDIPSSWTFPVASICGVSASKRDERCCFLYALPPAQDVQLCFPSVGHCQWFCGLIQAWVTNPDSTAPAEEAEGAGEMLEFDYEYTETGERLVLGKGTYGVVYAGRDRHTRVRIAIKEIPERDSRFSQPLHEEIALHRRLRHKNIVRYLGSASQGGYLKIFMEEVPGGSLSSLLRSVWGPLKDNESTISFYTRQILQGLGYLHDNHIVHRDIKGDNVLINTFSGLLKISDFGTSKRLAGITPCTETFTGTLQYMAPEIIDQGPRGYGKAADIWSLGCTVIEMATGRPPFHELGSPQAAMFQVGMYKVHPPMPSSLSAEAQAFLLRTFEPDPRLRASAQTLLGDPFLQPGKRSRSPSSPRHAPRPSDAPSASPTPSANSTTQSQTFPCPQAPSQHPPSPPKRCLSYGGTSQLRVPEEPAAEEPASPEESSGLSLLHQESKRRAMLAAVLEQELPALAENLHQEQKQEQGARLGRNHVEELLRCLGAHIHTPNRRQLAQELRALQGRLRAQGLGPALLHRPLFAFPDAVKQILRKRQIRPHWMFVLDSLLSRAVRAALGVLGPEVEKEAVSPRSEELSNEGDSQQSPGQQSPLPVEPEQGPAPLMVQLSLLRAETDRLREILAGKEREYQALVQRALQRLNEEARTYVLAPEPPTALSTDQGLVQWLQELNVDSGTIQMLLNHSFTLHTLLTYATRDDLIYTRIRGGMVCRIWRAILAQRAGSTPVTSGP
Also: in the data inactive means no Kd found up to 30 µM.

SMILES	Kd [1]	Kd [2]	Kd [3]	Kd [4]
O=c1sn(-c2cccc3ccccc23)c(=O)n1Cc1ccccc1 [TIDEGLUSIB]	> 30 µM (inactive)	> 30 µM (inactive)	> 30 µM (inactive)	> 30 µM (inactive)
C[C@@H](c1ccc2nccn2c1)n1nnc2ncc(-c3cnn(C)c3)nc21 [SAVOLITINIB]	> 30 µM (inactive)	> 30 µM (inactive)	> 30 µM (inactive)	> 30 µM (inactive)
CC[C@H](Nc1ncnc2[nH]cnc12)c1nc2cccc(F)c2c(=O)n1-c1ccccc1 [IDELALISIB]	> 30 µM (inactive)	> 30 µM (inactive)	> 30 µM (inactive)	> 30 µM (inactive)
C1=C/COCc2cc(ccc2OCCN2CCCC2)Nc2nccc(n2)-c2cccc(c2)COC/1 [PACRITINIB]	> 30 µM (inactive)	> 30 µM (inactive)	> 30 µM (inactive)	> 30 µM (inactive)
Cn1cc(-c2ccc3nnc(C(F)(F)c4ccc5ncccc5c4)n3n2)cn1 [JNJ-38877605]	> 30 µM (inactive)	> 30 µM (inactive)	> 30 µM (inactive)	> 30 µM (inactive)
N[C@@H]1CCCN(c2c(/C=C3\SC(=O)NC3=O)cccc2-c2ccccc2)C1	> 30 µM (inactive)	> 30 µM (inactive)	> 30 µM (inactive)	> 30 µM (inactive)
Cc1cc(-c2cc(O)ccc2Cl)cc2nnc(Nc3ccc(OCCN4CCCC4)cc3)nc12	> 30 µM (inactive)	> 30 µM (inactive)	> 30 µM (inactive)	> 30 µM (inactive)
O=C(c1ccc(F)c(F)c1Nc1ccc(I)cc1F)N1CC(O)([C@@H]2CCCCN2)C1 [COBIMETINIB]	> 30 µM (inactive)	> 30 µM (inactive)	> 30 µM (inactive)	> 30 µM (inactive)
CCc1cnn2c(NCc3ccc[n+]([O-])c3)cc(N3CCCC[C@H]3CCO)nc12 [DINACICLIB]	> 30 µM (inactive)	> 30 µM (inactive)	> 30 µM (inactive)	> 30 µM (inactive)
CN1CCC(COc2cnc(-c3cccc(Cn4nc(-c5cccc(C#N)c5)ccc4=O)c3)nc2)CC1 [TEPOTINIB]	> 30 µM (inactive)	> 30 µM (inactive)	> 30 µM (inactive)	> 30 µM (inactive)
CC[C@@H]1C(=O)N(C)c2cnc(Nc3ccc(C(=O)N[C@H]4CC[C@H](N5CCN(CC6CC6)CC5)CC4)cc3OC)nc2N1C(C)C [VOLASERTIB]	> 30 µM (inactive)	> 30 µM (inactive)	> 30 µM (inactive)	> 30 µM (inactive)
CO[C@H]1C[C@@H]2CC[C@@H](C)[C@@](O)(O2)C(=O)C(=O)N2CCCC[C@H]2C(=O)O[C@H]([C@H](C)C[C@@H]2CC[C@@H](OCCO)[C@H](OC)C2)CC(=O)[C@H](C)/C=C(\C)[C@@H](O)[C@@H](OC)C(=O)[C@H](C)C[C@H](C)/C=C/C=C/C=C/1C [EVEROLIMUS]	> 30 µM (inactive)	> 30 µM (inactive)	> 30 µM (inactive)	> 30 µM (inactive)
Cn1cc(-c2ccc(F)c(C(F)(F)F)c2)nc1C1CCN(c2ncnc3[nH]ncc23)CC1 [LY-2584702]	> 30 µM (inactive)	> 30 µM (inactive)	> 30 µM (inactive)	> 30 µM (inactive)
COc1cc2nccc(Oc3ccc(NC(=O)Nc4cc(C)on4)c(Cl)c3)c2cc1OC [TIVOZANIB]	> 30 µM (inactive)	> 30 µM (inactive)	> 30 µM (inactive)	> 30 µM (inactive)

Other lines, results leading:

Kd [1]	Kd [2]	Kd [3]	Kd [4]	SMILES
> 30 µM (inactive)	> 30 µM (inactive)	> 30 µM (inactive)	> 30 µM (inactive)	CN1CCC(CNc2ccc3ncc(-c4cccc(OC(F)(F)F)c4)n3n2)CC1 [SGI-1776]
> 30 µM (inactive)	> 30 µM (inactive)	> 30 µM (inactive)	> 30 µM (inactive)	COc1cc(OC)c(/C=C/S(=O)(=O)Cc2ccc(OC)c(NCC(=O)O)c2)c(OC)c1 [RIGOSERTIB]
> 30 µM (inactive)	> 30 µM (inactive)	> 30 µM (inactive)	> 30 µM (inactive)	CN(C)C(=O)c1cc2cnc(Nc3ccc(N4CCNCC4)cn3)nc2n1C1CCCC1 [RIBOCICLIB]
> 30 µM (inactive)	> 30 µM (inactive)	> 30 µM (inactive)	> 30 µM (inactive)	COC(=O)N[C@@H](C)CNc1nccc(-c2cn(C(C)C)nc2-c2cc(Cl)cc(NS(C)(=O)=O)c2F)n1 [ENCORAFENIB]
> 30 µM (inactive)	> 30 µM (inactive)	> 30 µM (inactive)	> 30 µM (inactive)	COCCNCc1ccc(-c2cc3nccc(Oc4ccc(NC(=S)NC(=O)Cc5ccc(F)cc5)cc4F)c3s2)nc1 [GLESATINIB]
> 30 µM (inactive)	> 30 µM (inactive)	> 30 µM (inactive)	> 30 µM (inactive)	CNC(=O)CN1CCC(Oc2cc3c(Nc4cccc(Cl)c4F)ncnc3cc2OC)CC1 [SAPITINIB]
> 30 µM (inactive)	> 30 µM (inactive)	> 30 µM (inactive)	> 30 µM (inactive)	Cn1ncc(Cl)c1-c1cc(C(=O)N[C@H](CN)Cc2cccc(F)c2)sc1Cl [AFURESERTIB]
> 30 µM (inactive)	> 30 µM (inactive)	> 30 µM (inactive)	> 30 µM (inactive)	C[C@@H]1CN(Cc2ccc(F)cc2)[C@@H](C)CN1C(=O)c1cc2c(C(=O)C(=O)N(C)C)cn(C)c2cc1Cl [TALMAPIMOD]
> 30 µM (inactive)	> 30 µM (inactive)	> 30 µM (inactive)	> 30 µM (inactive)	OCCn1cc(-c2cnc3nnn(Cc4ccc5ncccc5c4)c3n2)cn1 [PF-04217903]

Source: ChEMBL document CHEMBL3991601, “The target landscape of clinical kinase drugs” (Science, 2017)
